In patent publication US20260116920A1, “HUMAN TRANSFERRIN RECEPTOR BINDING PEPTIDE” (PEPTIDREAM INC., priority 2021, published 2026) one finds Kd data, which are given here for 15 compounds.

SMILES strings stand for the structures. pKd: −log10 of the molar value.

For the experiment, the target named is T1, human transferrin receptor (hTfR) (Homo sapiens, UniProt P02786).
T1 construct: made in house
Kind of experiment: Evaluation of molecular interaction between transferrin receptor (hTfR) and peptide using surface plasmon resonance (SPR). In kind it is binding. The note with it: surface plasmon resonance, binding to hTfR; KD class symbol; read-out: SPR (KD value). The method, boiled down:
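Using a Ni-NTA surface bearing covalently coupled hTfR dimer, peptides were tested at five concentrations from 5 to 100 nM. Running buffer was 10 mM HEPES pH 8.0, 150 mM NaCl, 0.05% Tween 20, 0.1% BSA, 1.0% DMSO; single-cycle sensorgrams were least-squares fitted for KD.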
(Surface plasmon resonance follows binding to a sensor surface in real time, without labels.)

T1 sequence (P02786 89-760 limits assumed): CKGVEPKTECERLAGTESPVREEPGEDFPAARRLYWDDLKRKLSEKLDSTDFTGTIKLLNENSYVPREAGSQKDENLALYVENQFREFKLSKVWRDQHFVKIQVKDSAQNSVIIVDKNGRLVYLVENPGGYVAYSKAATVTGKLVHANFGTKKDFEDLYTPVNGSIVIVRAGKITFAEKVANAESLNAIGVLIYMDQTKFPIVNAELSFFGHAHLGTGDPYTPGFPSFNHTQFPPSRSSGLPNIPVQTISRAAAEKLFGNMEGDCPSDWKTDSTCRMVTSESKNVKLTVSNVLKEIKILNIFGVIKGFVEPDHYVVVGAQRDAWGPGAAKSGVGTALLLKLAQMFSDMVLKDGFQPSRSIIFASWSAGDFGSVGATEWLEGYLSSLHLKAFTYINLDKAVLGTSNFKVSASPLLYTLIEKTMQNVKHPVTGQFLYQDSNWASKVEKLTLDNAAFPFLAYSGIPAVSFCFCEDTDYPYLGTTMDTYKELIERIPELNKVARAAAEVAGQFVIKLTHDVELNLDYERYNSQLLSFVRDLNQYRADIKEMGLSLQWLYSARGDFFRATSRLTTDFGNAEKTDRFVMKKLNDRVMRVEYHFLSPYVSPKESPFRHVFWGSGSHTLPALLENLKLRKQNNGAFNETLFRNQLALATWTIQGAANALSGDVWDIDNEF

As to `CC[C@H](C)[C@@H]1NC(=O)[C@H](Cc2ccc(O)cc2)NC(=O)[C@H](Cc2ccc(O)cc2)NC(=O)[C@H](CC(N)=O)NC(=O)[C@H](Cc2c[nH]c3ccc(Cl)cc23)NC(=O)[C@H](C(C)C)NC(=O)[C@H](Cc2ccc(F)cc2)N(C)C(=O)[C@H](C(C)C)NC(=O)[C@H](C)NC(=O)CSC[C@@H](C(=O)NCCOCCOCCOCCOCCC(N)=O)NC(=O)[C@H](Cc2ccc(O)cc2)N(C)C(=O)[C@H](Cc2ccccc2)NC(=O)[C@@H](CCCNC(=N)N)NC(=O)[C@H](CCCNC(=N)N)NC(=O)[C@H]([C@@H](C)CC)NC1=O` [compound 24], the pKd is 7.00 to 9.00.
To `CC[C@H](C)[C@@H]1NC(=O)[C@H](Cc2ccc(O)cc2)NC(=O)[C@H](Cc2ccc(O)cc2)NC(=O)[C@H](CC(N)=O)NC(=O)[C@H](Cc2c[nH]c3ccc(Cl)cc23)NC(=O)[C@H](C(C)C)NC(=O)[C@H](Cc2ccc(F)cc2)N(C)C(=O)[C@H](C(C)C)NC(=O)[C@H](C)NC(=O)CSC[C@@H](C(=O)NCCOCCOCCOCCOCCC(N)=O)NC(=O)[C@H](Cc2ccc(O)cc2)N(C)C(=O)[C@H](Cc2ccccc2)NC(=O)[C@@H](CCCNC(=N)N)NC(=O)[C@H](CCCNC(=N)N)N(C)C(=O)[C@H]([C@@H](C)CC)NC1=O` [compound 25] belongs 6.00 to 7.00; to `CC[C@H](C)[C@@H]1NC(=O)[C@H](Cc2ccc(OC)cc2)NC(=O)[C@H](Cc2ccc(O)cc2)NC(=O)[C@H](CC(N)=O)NC(=O)[C@H](Cc2c[nH]c3ccc(Cl)cc23)NC(=O)[C@H](C(C)C)NC(=O)[C@H](Cc2ccc(F)cc2)N(C)C(=O)[C@H](C(C)C)NC(=O)[C@H](C)NC(=O)CSC[C@@H](C(=O)NCCOCCOCCOCCOCCC(N)=O)NC(=O)[C@H](Cc2ccc(O)cc2)N(C)C(=O)[C@H](Cc2ccccc2)NC(=O)[C@@H](CCCNC(=N)N)NC(=O)[C@H](CCCNC(=N)N)NC(=O)[C@H]([C@@H](C)CC)NC1=O` [compound 26], 7.00 to 9.00.
The value for `CC[C@H](C)[C@@H]1NC(=O)[C@H](Cc2ccc(OC)cc2)NC(=O)[C@H](Cc2ccc(O)cc2)NC(=O)[C@H](CC(N)=O)NC(=O)[C@H](Cc2c[nH]c3ccc(Cl)cc23)NC(=O)[C@H](C(C)C)NC(=O)[C@H](Cc2ccc(F)cc2)N(C)C(=O)[C@H](C(C)C)NC(=O)[C@H](C)NC(=O)CSC[C@@H](C(=O)NCCOCCOCCOCCOCCC(N)=O)NC(=O)[C@H](Cc2ccc(O)cc2)N(C)C(=O)[C@H](Cc2ccccc2)NC(=O)[C@@H](CCCNC(=N)N)NC(=O)[C@H](CCCNC(=N)N)N(C)C(=O)[C@H]([C@@H](C)CC)NC1=O` [compound 27] was 7.00 to 9.00; that for `CC[C@H](C)[C@@H]1NC(=O)[C@H](Cc2ccc(O)cc2)NC(=O)[C@H](Cc2ccc(O)cc2)NC(=O)[C@H](CC(N)=O)NC(=O)[C@H](Cc2c[nH]c3ccccc23)N(C)C(=O)[C@H](C(C)C)NC(=O)[C@H](Cc2ccc(F)cc2)N(C)C(=O)[C@H](C(C)C)NC(=O)[C@H](C)NC(=O)CSC[C@@H](C(=O)NCCOCCOCCOCCOCCC(N)=O)NC(=O)[C@H](Cc2ccc(O)cc2)N(C)C(=O)[C@H](Cc2ccccc2)NC(=O)[C@@H](CCCNC(=N)N)NC(=O)[C@H](CCCNC(=N)N)NC(=O)[C@H]([C@@H](C)CC)NC1=O` [compound 28] was 7.00 to 9.00; that for `CC[C@H](C)[C@@H]1NC(=O)[C@H](Cc2ccc(OC)cc2)NC(=O)[C@H](Cc2ccc(O)cc2)NC(=O)[C@H](CC(N)=O)NC(=O)[C@H](Cc2c[nH]c3ccccc23)N(C)C(=O)[C@H](C(C)C)NC(=O)[C@H](Cc2ccc(F)cc2)N(C)C(=O)[C@H](C(C)C)NC(=O)[C@H](C)NC(=O)CSC[C@@H](C(=O)NCCOCCOCCOCCOCCC(N)=O)NC(=O)[C@H](Cc2ccc(O)cc2)N(C)C(=O)[C@H](Cc2ccccc2)NC(=O)[C@@H](CCCNC(=N)N)NC(=O)[C@H](CCCNC(=N)N)NC(=O)[C@H]([C@@H](C)CC)NC1=O` [compound 29] was 7.00 to 9.00.
Regarding `CC[C@H](C)[C@@H]1NC(=O)[C@H](Cc2ccc(OC)cc2)NC(=O)[C@H](Cc2ccc(O)cc2)NC(=O)[C@H](CC(N)=O)NC(=O)[C@H](Cc2c[nH]c3ccccc23)N(C)C(=O)[C@H](C(C)C)NC(=O)[C@H](Cc2ccc(F)cc2)N(C)C(=O)[C@H](C(C)C)NC(=O)[C@H](C)NC(=O)CSC[C@@H](C(=O)NCCOCCOCCOCCOCCC(N)=O)NC(=O)[C@H](Cc2ccc(O)cc2)N(C)C(=O)[C@H](Cc2ccccc2)NC(=O)[C@@H](CCCNC(=N)N)NC(=O)[C@H](CCCNC(=N)N)N(C)C(=O)[C@H]([C@@H](C)CC)NC1=O` [compound 30], the pKd is 7.00 to 9.00.
As to `CC[C@H](C)[C@@H]1NC(=O)[C@H](Cc2ccc(OC)cc2)NC(=O)[C@H](Cc2ccc(O)cc2)NC(=O)[C@H](CC(N)=O)NC(=O)[C@H](Cc2c[nH]c3ccc(Cl)cc23)NC(=O)[C@H](C(C)C)NC(=O)[C@H](Cc2ccccc2)N(C)C(=O)[C@H](C(C)C)NC(=O)[C@H](C)NC(=O)CSC[C@@H](C(=O)NCCOCCOCCOCCOCCC(N)=O)NC(=O)[C@H](Cc2ccc(O)cc2)N(C)C(=O)[C@H](Cc2ccc(O)cc2)NC(=O)[C@H](CCCNC(=N)N)NC(=O)[C@H](CCCNC(=N)N)NC(=O)[C@H]([C@@H](C)CC)NC1=O` [compound 37], the negative logarithm of the Kd (pKd) was above 9.00.
On to `CC[C@H](C)[C@@H]1NC(=O)[C@H](Cc2ccc(OC)cc2)NC(=O)[C@H](Cc2ccc(O)cc2)NC(=O)[C@H](CC(N)=O)NC(=O)[C@H](Cc2c[nH]c3ccccc23)NC(=O)[C@H](C(C)C)NC(=O)[C@H](Cc2cccc(Cl)c2)N(C)C(=O)[C@H](C(C)C)NC(=O)[C@H](C)NC(=O)CSC[C@@H](C(=O)NCCOCCOCCOCCOCCC(N)=O)NC(=O)[C@H](Cc2ccc(O)cc2)N(C)C(=O)[C@H](Cc2ccc(O)cc2)NC(=O)[C@H](CCCNC(=N)N)NC(=O)[C@H](CCCNC(=N)N)NC(=O)[C@H]([C@@H](C)CC)NC1=O` [compound 38], for which the negative-log Kd (pKd) was above 9.00.
To `CC[C@H](C)[C@@H]1NC(=O)[C@H](Cc2ccc(OC)cc2)NC(=O)[C@H](Cc2ccc(O)cc2)NC(=O)[C@H](CC(N)=O)NC(=O)[C@H](Cc2cn(CC(=O)O)c3ccccc23)NC(=O)[C@H](C(C)C)NC(=O)[C@H](Cc2cccc(Cl)c2)N(C)C(=O)[C@H](C(C)C)NC(=O)[C@H](C)NC(=O)CSC[C@@H](C(=O)NCC(=O)N[C@H](CCC(=O)O)C(=O)N[C@H](CCC(=O)O)C(=O)N[C@H](CCC(=O)O)C(=O)N[C@H](CO)C(=O)N[C@H](CO)C(=O)N[C@@H](CCCCN=[N+]=[N-])C(N)=O)NC(=O)[C@H](Cc2ccc(O)cc2)N(C)C(=O)[C@H](Cc2ccccc2)NC(=O)[C@H](CCCNC(=N)N)NC(=O)[C@H](CCCNC(=N)N)NC(=O)[C@H](CCC(=O)O)NC1=O` [compound 39] belongs above 9.00; to `CC[C@H](C)[C@@H]1NC(=O)[C@H](Cc2ccc(OCC(=O)O)cc2)NC(=O)[C@H](Cc2ccc(O)cc2)NC(=O)[C@H](CC(N)=O)NC(=O)[C@H](Cc2cn(CC(=O)O)c3ccccc23)NC(=O)[C@H](C(C)C)NC(=O)[C@H](Cc2cccc(Cl)c2)N(C)C(=O)[C@H](C(C)C)NC(=O)[C@H](C)NC(=O)CSC[C@@H](C(=O)NCC(=O)N[C@H](CCC(=O)O)C(=O)N[C@H](CCC(=O)O)C(=O)N[C@H](CCC(=O)O)C(=O)N[C@H](CO)C(=O)N[C@H](CO)C(=O)N[C@@H](CCCCN=[N+]=[N-])C(N)=O)NC(=O)[C@H](Cc2ccc(O)cc2)N(C)C(=O)[C@H](Cc2ccccc2)NC(=O)[C@H](CCCNC(=N)N)NC(=O)[C@H](CCCNC(=N)N)NC(=O)[C@H]([C@@H](C)CC)NC1=O` [compound 40], above 9.00; to `CC[C@H](C)[C@@H]1NC(=O)[C@H](Cc2ccc(OCC(=O)O)cc2)NC(=O)[C@H](Cc2ccc(O)cc2)NC(=O)[C@H](CC(N)=O)NC(=O)[C@H](Cc2c[nH]c3ccccc23)NC(=O)[C@H](C(C)C)NC(=O)[C@H](Cc2ccccc2)N(C)C(=O)[C@H](C(C)C)NC(=O)[C@H](C)NC(=O)CSC[C@@H](C(=O)NCC(=O)N[C@H](CCC(=O)O)C(=O)N[C@H](CCC(=O)O)C(=O)N[C@H](CCC(=O)O)C(=O)N[C@H](CO)C(=O)N[C@H](CO)C(=O)N[C@@H](CCCCN=[N+]=[N-])C(N)=O)NC(=O)[C@H](Cc2ccc(O)cc2)N(C)C(=O)[C@H](Cc2ccc(O)cc2)NC(=O)[C@H](CCCNC(=N)N)NC(=O)[C@H](CCCNC(=N)N)NC(=O)[C@H]([C@@H](C)CC)NC1=O` [compound 41], 7.00 to 9.00.
The value for `CC[C@H](C)[C@@H]1NC(=O)[C@H](Cc2ccc(OCC(=O)O)cc2)NC(=O)[C@H](Cc2ccc(O)cc2)NC(=O)[C@H](CC(N)=O)NC(=O)[C@H](Cc2cn(CC(=O)O)c3ccccc23)NC(=O)[C@H](C(C)C)NC(=O)[C@H](Cc2ccccc2)N(C)C(=O)[C@H](C(C)C)NC(=O)[C@H](C)NC(=O)CSC[C@@H](C(=O)NCC(=O)N[C@H](CCC(=O)O)C(=O)N[C@H](CCC(=O)O)C(=O)N[C@H](CCC(=O)O)C(=O)N[C@H](CO)C(=O)N[C@H](CO)C(=O)N[C@@H](CCCCN=[N+]=[N-])C(N)=O)NC(=O)[C@H](Cc2ccc(O)cc2)N(C)C(=O)[C@H](Cc2ccc(O)cc2)NC(=O)[C@H](CCCNC(=N)N)NC(=O)[C@H](CCCNC(=N)N)NC(=O)[C@H]([C@@H](C)CC)NC1=O` [compound 42] was 7.00 to 9.00.
For `CC[C@H](C)[C@@H]1NC(=O)[C@H](Cc2ccc(OC)cc2)NC(=O)[C@H](Cc2ccc(O)cc2)NC(=O)[C@H](CC(N)=O)NC(=O)[C@H](Cc2cn(CC(=O)O)c3ccccc23)NC(=O)[C@H](C(C)C)NC(=O)[C@H](Cc2cccc(Cl)c2)N(C)C(=O)[C@H](C(C)C)NC(=O)[C@H](C)NC(=O)CSC[C@@H](C(=O)NCCOCCOCCOCCOCCC(N)=O)NC(=O)[C@H](Cc2ccc(O)cc2)N(C)C(=O)[C@H](Cc2ccccc2)NC(=O)[C@H](CCCNC(=N)N)NC(=O)[C@H](CCCNC(=N)N)NC(=O)[C@H](CCC(=O)O)NC1=O` [compound 43], the pKd is 7.00 to 9.00.
As for `CC[C@H](C)[C@@H]1NC(=O)[C@H](Cc2ccc(OCC(=O)O)cc2)NC(=O)[C@H](Cc2ccc(O)cc2)NC(=O)[C@H](CC(N)=O)NC(=O)[C@H](Cc2cn(CC(=O)O)c3ccccc23)NC(=O)[C@H](C(C)C)NC(=O)[C@H](Cc2cccc(Cl)c2)N(C)C(=O)[C@H](C(C)C)NC(=O)[C@H](C)NC(=O)CSC[C@@H](C(=O)NCCOCCOCCOCCOCCC(N)=O)NC(=O)[C@H](Cc2ccc(O)cc2)N(C)C(=O)[C@H](Cc2ccccc2)NC(=O)[C@H](CCCNC(=N)N)NC(=O)[C@H](CCCNC(=N)N)NC(=O)[C@H]([C@@H](C)CC)NC1=O` [compound 44], the negative logarithm of the Kd (pKd) was 7.00 to 9.00.

In general, pKd refers to the Kd on a negative log10 scale, so that one unit is a factor of ten.
